{"source": "patent US12453735B2", "about": "“Treating cancer with a CCK receptor inhibitor and an immune checkpoint inhibitor” (GEORGETOWN UNIVERSITY, priority 2017, dated 2025)", "key": {"Panc02 cells [1]": {"tested_on": "Panc02 cells", "test": "Subcutaneous Panc02 tumors in C57BL/6 mice, CCKR antagonist and PD-1 antibody", "format": "in vivo, mouse", "details": "vs PBS; for tumor size / tumor volume: Panc02 in C57BL/6, L364,718 4 mg/kg tiw ip, PD-1 antibody 125 μg×3 injections", "quoted_text": "(§3) Cells were cultured in DMEM: F12 media with 10% FBS. […] In the following series of experiments Panc02 cells (1×10^6 or 2×10^6) were injected either orthotopically or subcutaneously in animals.\n(§4) Treatments—Two different CCK receptor antagonists were used in this investigation. […] The other CCK receptor antagonist used was proglumide which is an orally bioavailable nonselective antagonist that blocks both the CCK-A and CCK-B receptors. Proglumide (Tocris Bioscience) was administered in the drinking water at a concentration of 0.1 mg/mL, or approximately 30 mg/kg/d per mouse.\n(§5) Two immune checkpoint blockade antibodies were used in this investigation. The antibody to the programmed cell death protein 1 (PD1-Ab) (Bio X cell, West Lebanon, NH) was administered intraperitoneally to mice at a dose of either 125 μg×3 injections or 200 μg every 3 days.\n(§6) Another series of experiments was performed in C57BL/6 mice to evaluate the role of CCKR blockade in combination with immune checkpoint antibody therapy. Each series of experiments was performed using 40 mice with syngeneic murine tumors. […] The primary end point was tumor volume (1,000 mm^3) or mouse survival. Tumors were excised and examined histologically, and by immunohistochemistry, or by flow cytometry for immune cells.\n(§7) Tumor sections were also stained with either CD3 antibodies (1:85; DAKO, Carpinteria, CA); CD8 antibodies (1:75; eBioscience, San Diego, CA); CD4 antibodies (1:225; eBioscience), or FoxP3 antibody (1:30; eBioscience) and immunoreactive cells counted manually."}, "Panc02 cells [2]": {"tested_on": "Panc02 cells", "test": "Orthotopic Panc02 pancreatic tumors in SCID mice", "format": "in vivo, mouse", "description": "(§1) Animal Models—Three different murine models were used in this investigation: 1) severe combined immune deficiency (B6.CB17-Prkdc^scid/SzJ; SCID) mice to study the role of CCKR blockade on orthotopic cancer growth and metastasis independent of immune cells, 2) immune competent Pdx1-Cre/LSL-Kras^G12D transgenic mice for a pancreatic carcinogenesis model to study the role of CCKR blockade on the pancreatic stellate cells and immune cells of the pancreas, and 3) immune competent C57BL/6 mice to study the role of CCKR antagonist in combination with immune checkpoint antibodies on growth and survival of mice bearing syngeneic PDAC tumors. Institutional guidelines for care and use of laboratory animals were followed throughout the study in accordance with protocols approved by the Georgetown University Institutional Animal Use and Care Committee.\n(§2) Four weeks after tumor inoculation mice were euthanized, tumors removed and weighed, and the number of metastases counted. TILs were evaluated in tumors of the C57BL/6 mice by immunohistochemistry and fibrosis assessed with Masson's trichrome stain."}, "pancreatic cancer tumor": {"tested_on": "pancreatic cancer tumor", "details": "immune deficient nude mouse, 2 mg/kg twice daily; cited from earlier work"}, "Panc02 cells [3]": {"tested_on": "Panc02 cells", "test": "Survival and tumor immune cells of C57BL/6 mice bearing subcutaneous Panc02 tumors, CCKR antagonist and CTLA-4 antibody", "quoted_text": "as §3, §4, §5, §6, §7"}, "Panc02 cells [4]": {"tested_on": "Panc02 cells", "test": "Orthotopic Panc02 pancreatic tumors in immune competent C57BL/6 mice", "format": "in vivo, mouse", "description": "as §1, §2"}, "pancreatic primary tumor": {"tested_on": "pancreatic primary tumor", "details": "immune competent mouse, 4 mg/kg three times weekly ip; cited from earlier work"}, "[5]": {"tested_on": "pancreas of Pdx1-Cre/LSL-Kras^G12D transgenic mouse", "test": "Pancreatic carcinogenesis model, Pdx1-Cre/LSL-Kras^G12D transgenic mice", "format": "in vivo", "details": "proglumide in drinking water for 4 months", "description": "as §1\nThe second series of experiments was performed to analyze the role of CCKR antagonist monotherapy on the TILs of the pancreas microenvironment during pancreatic carcinogenesis using the Pdx1-Cre/LSL-Kras^G12D transgenic mouse. After the mice reached 3-4 months of age, when PanINs and fibrosis are established, mice were treated with either proglumide (in the drinking water) or untreated water. After 4 months of therapy, the pancreata were excised and compared to the pancreas of age-matched litter mates of mice on untreated water. […]"}, "Panc02 cells [6]": {"tested_on": "Panc02 cells", "details": "2×10^6 Panc02 cells, vs PBS", "quoted_text": "as §3\nSubcutaneous tumor volumes were measured with calipers weekly in animals bearing subcutaneous tumors using the formula Length×(width)^2×0.5.\nas §4\nTwo immune checkpoint blockade antibodies were used in this investigation. […] The antibody to cytotoxic T-lymphocyte-associated antigen 4 (CTLA-4 Ab; Bio-X cell, West Lebanon, NH) was given at a dose of 200 μg every 3 days by intraperitoneal injections.\nAnother series of experiments was performed in C57BL/6 mice to evaluate the role of CCKR blockade in combination with immune checkpoint antibody therapy. Each series of experiments was performed using 40 mice with syngeneic murine tumors. […]\nComparisons were made by ANOVA and student's t-test. […] Survival was analyzed by Kaplan Meier analysis and differences by hazard ratios using Prism Software (GraphPad software, Inc., San Diego, CA). […]"}, "[7]": {"details": "cited from earlier work"}, "CCK-A receptor": {"target": "T1, CCK-A receptor (Homo sapiens, UniProt P32238)", "T1 sequence (P32238 1-428)": "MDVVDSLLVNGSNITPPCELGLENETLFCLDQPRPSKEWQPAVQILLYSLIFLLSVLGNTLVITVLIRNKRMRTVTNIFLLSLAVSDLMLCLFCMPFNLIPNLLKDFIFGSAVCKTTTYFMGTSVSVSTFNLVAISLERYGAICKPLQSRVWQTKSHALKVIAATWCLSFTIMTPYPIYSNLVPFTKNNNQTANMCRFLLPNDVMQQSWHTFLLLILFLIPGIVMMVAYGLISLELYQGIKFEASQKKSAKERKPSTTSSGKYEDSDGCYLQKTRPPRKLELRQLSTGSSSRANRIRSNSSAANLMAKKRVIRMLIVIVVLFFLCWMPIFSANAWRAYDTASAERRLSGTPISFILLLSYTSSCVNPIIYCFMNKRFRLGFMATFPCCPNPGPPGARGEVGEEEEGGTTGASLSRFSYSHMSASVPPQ", "details": "cited from earlier work"}, "CCK-B receptor": {"target": "T2, CCK-B receptor (Homo sapiens, UniProt P32239)", "T2 sequence (P32239 1-447)": "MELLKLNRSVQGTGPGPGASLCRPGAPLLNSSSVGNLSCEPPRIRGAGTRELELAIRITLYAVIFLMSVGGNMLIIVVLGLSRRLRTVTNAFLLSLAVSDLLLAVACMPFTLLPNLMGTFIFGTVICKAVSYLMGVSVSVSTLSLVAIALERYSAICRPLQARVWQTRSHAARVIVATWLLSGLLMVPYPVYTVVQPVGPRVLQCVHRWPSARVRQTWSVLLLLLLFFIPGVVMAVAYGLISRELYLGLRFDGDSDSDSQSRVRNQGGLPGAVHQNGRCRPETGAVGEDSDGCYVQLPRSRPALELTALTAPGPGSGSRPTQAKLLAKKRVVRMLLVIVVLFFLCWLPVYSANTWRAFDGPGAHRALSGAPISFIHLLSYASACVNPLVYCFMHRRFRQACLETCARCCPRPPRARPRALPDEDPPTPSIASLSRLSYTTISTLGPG", "details": "cited from earlier work"}, "[8]": {"details": "Panc02 tumors, immunohistochemistry"}}, "note": "Entries after “also recorded” stand apart in the source; their conditions may differ.", "data": [{"smiles": "CN1C(=O)[C@@H](NC(=O)c2cc3ccccc3[nH]2)N=C(c2ccccc2)c2ccccc21", "note": "[L364,718, Devazepide]", "values": [{"measurement": "tumor size / tumor volume", "setting": "Panc02 cells [1]", "result": "did not significantly decrease the tumor size"}, {"measurement": "tumor size / tumor volume", "setting": "Panc02 cells [1]; listed as L-364,718", "result": "not significantly smaller"}, {"measurement": "CD4+ cells in tumor (immunohistochemistry)", "setting": "Panc02 cells [1]; Panc02 tumors", "result": "increased"}, {"measurement": "CD8+ cells in tumor (immunohistochemistry)", "setting": "Panc02 cells [1]; Panc02 tumors", "result": "increased"}, {"measurement": "primary tumor weight", "setting": "Panc02 cells [2]; orthotopic 10^6 Panc02 cells, 4 mg/kg three times a week ip, four weeks, vs PBS", "result": "significantly reduced the primary tumor weight"}, {"measurement": "metastases", "setting": "Panc02 cells [2]; orthotopic Panc02, 4 mg/kg three times a week ip, 75% of untreated SCID mice had metastases", "result": "no metastases"}, {"measurement": "pancreatic cancer tumor size", "setting": "pancreatic cancer tumor", "result": "significant reduction in pancreatic cancer tumor size"}, {"measurement": "average CD4+ cell numbers in tumor", "setting": "Panc02 cells [3]; [8]", "result": "increased"}, {"measurement": "average CD8+ cell numbers in tumor", "setting": "Panc02 cells [3]; [8]", "result": "increased"}, {"measurement": "mice still alive at day 50", "setting": "Panc02 cells [3]; subcutaneous Panc02, C57BL/6, all PBS controls had died by day 50", "result": 42, "unit": "%"}, {"measurement": "metastases", "setting": "Panc02 cells [4]; C57BL/6 mice, orthotopic Panc02, 4 mg/kg three times a week ip", "result": "decreased metastases"}, {"measurement": "primary tumor size", "setting": "Panc02 cells [4]; C57BL/6 mice, orthotopic Panc02, 4 mg/kg three times a week ip, vs PBS", "result": "did not alter the primary tumor size"}, {"measurement": "CD3+ lymphocytes in tumor by immunohistochemistry", "setting": "Panc02 cells [4]; orthotopic Panc02 tumors, C57BL/6 mice, vs PBS", "result": "significant increase in CD3+ lymphocytes"}, {"measurement": "inhibition of pancreatic primary tumor growth", "setting": "pancreatic primary tumor", "result": "insufficient dose, by itself, to inhibit pancreatic primary tumor growth"}, {"measurement": "number of metastases", "setting": "pancreatic primary tumor", "result": "did decrease the number of metastases"}]}, {"smiles": "CCCN(CCC)C(=O)C(CCC(=O)O)NC(=O)c1ccccc1", "note": "(stereo not shown) [proglumide]", "values": [{"measurement": "survived longer than PBS control mice", "setting": "mT3 cells; mT3 pancreatic cancers, average", "result": 12, "unit": "days"}, {"measurement": "number of Foxp3+ cells (Tregs)", "setting": "mT3 cells; mT3 tumors, vs PBS", "result": "decreased"}, {"measurement": "tumor-associated fibrosis by Masson's trichrome stain", "setting": "mT3 cells; mT3 tumors, vs PBS", "result": "noticeably less"}, {"measurement": "α-SMA immunoreactivity (activated fibroblasts)", "setting": "mT3 cells; mT3 tumors, vs PBS", "result": "somewhat decreased with proglumide, but this change was not statistically significant"}, {"measurement": "quantitative analysis of intratumoral fibrosis", "setting": "mT3 cells; mT3 tumors, vs PBS controls and PD-1 monotherapy, p<0.01", "result": "significantly less fibrosis"}, {"measurement": "growth of mT3 tumors / tumor size", "setting": "mT3 cells; proglumide 0.1 mg/mL drinking water, PD-1 antibody 200 μg every three days, vs PBS", "result": "significantly slowed tumor growth; also recorded: significantly slower"}, {"measurement": "fibrosis of the pancreas microenvironment (trichrome stain)", "setting": "[5]; vs age-matched controls", "result": "significantly diminished fibrosis; also recorded: significantly reversed fibrosis"}, {"measurement": "CD3+ cells in mouse pancreas", "setting": "[5]; vs untreated water", "result": "significant increase in the CD3+ cells"}, {"measurement": "prolonged life", "setting": "Panc02 cells [6]", "result": 5, "unit": "days"}, {"measurement": "water solubility", "setting": "[7]", "result": "water soluble"}, {"measurement": "antagonism at the CCK-A receptor", "setting": "CCK-A receptor", "result": "weaker nonselective CCK antagonist"}, {"measurement": "fibrosis of tumor microenvironment (Masson's trichrome stain)", "setting": "Panc02 cells [4]; orthotopic Panc02 tumors, vs PBS/vehicle", "result": "marked decreased fibrosis"}, {"measurement": "antagonism at the CCK-B receptor", "setting": "CCK-B receptor", "result": "inhibitory properties at both the CCK-A and CCK-B receptor types"}]}]}
